Entries after “also recorded” stand apart in the source; their conditions may differ.

One data set relates to HCT116. Nature of the data set: MTT assay. In kind it is cell-based. The conditions noted are these: Homo sapiens, HCT-116; Parental cell line HCT116, MTT, 72 h.
The next data set has as its system DU-145. Description: MTT assay. In kind it is cell-based. The following applies: Homo sapiens; Parental cell line DU-145, MTT, 72 h.
The test system of a further data set is HepG2/ADR. Description: MTT assay. In kind it is cell-based, human. Background: Formazan colour is commonly taken as a measure of viable cells.
Another data set deals with MCF-7. Description: MTT assay. The format is cell-based. The conditions noted are these: Homo sapiens, MCF7; Parental cell line MCF-7, MTT, 72 h.
In the next data set the target is P-glycoprotein (Pgp) (Homo sapiens, UniProt P08183). Nature of the data set: Pgp substrate assessment in Pgp-overexpressing resistant sublines. The following applies: from MCF-7/ADR and HepG2/ADR sublines with overexpressed Pgp.
Chain of P-glycoprotein (Pgp) (P08183 whole entry): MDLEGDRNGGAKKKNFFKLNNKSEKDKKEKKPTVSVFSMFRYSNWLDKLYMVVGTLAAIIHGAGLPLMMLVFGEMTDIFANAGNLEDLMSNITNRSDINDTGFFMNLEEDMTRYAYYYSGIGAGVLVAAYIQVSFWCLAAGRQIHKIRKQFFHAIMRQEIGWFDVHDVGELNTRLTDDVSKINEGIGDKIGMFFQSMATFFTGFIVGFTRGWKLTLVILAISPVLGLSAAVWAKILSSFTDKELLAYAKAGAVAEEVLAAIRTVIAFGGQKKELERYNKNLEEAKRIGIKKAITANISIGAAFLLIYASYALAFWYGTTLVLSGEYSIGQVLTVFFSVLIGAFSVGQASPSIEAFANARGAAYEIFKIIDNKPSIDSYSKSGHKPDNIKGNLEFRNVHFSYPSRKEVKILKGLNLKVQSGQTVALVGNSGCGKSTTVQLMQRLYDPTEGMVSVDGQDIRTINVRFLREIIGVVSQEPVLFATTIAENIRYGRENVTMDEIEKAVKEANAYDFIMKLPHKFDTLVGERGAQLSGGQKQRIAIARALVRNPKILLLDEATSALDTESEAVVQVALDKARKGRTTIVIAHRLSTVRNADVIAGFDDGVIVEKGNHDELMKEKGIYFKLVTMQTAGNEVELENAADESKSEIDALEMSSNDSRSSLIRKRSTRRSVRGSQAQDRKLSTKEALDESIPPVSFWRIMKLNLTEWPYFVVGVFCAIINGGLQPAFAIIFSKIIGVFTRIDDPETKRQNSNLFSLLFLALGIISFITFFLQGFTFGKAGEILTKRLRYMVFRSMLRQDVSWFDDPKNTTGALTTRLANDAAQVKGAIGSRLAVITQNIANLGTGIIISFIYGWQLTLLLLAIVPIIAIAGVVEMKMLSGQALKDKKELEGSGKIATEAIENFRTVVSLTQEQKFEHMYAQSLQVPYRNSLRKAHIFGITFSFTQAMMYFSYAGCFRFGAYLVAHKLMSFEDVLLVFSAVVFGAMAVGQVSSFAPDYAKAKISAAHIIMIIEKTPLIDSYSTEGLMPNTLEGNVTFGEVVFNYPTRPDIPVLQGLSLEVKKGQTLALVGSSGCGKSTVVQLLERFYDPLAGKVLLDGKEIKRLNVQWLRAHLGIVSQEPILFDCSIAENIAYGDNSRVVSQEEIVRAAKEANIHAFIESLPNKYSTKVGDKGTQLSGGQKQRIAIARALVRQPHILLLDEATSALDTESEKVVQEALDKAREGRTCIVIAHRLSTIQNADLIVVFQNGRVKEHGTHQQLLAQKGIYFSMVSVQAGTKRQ
The subject of the next data set is MCF-7/ADR. Nature of the data set: MTT assay. In kind it is cell-based, human.
The next data set deals with TOP2. Description: TOP2-mediated relaxation assay. The format is biochemical. The following applies: 25 μM, relaxation of supercoiled pBR322 DNA. The protocol: Figure S1. TOP2-mediated relaxation assay. Lane 1, supercoiled pBR322 DNA alone; Lane 2, DNA
and enzyme; Lanes 3, DNA, enzyme and the positive control etoposide (VP16) at 25 μM; Lanes 4,
DNA, enzyme and CYB-L10 at 25 μM. R: relaxed DNA. Sc: supercoiled DNA.
(1 picture or pasted object on this page, not shown here)

For another data set, the system named is TOP1. Also on record: method as in PMID 26188908. The conditions noted are these: compared with CPT; cited from earlier work.
A further data set relates to HCT116-siTop1. Description: MTT assay. In kind it is cell-based. The following applies: Homo sapiens; Resistant subline HCT116-siTop1, MTT, 72 h.
A further data set concerns HCT116 cells. Nature of the data set: Apoptosis analysis, flow cytometry annexin V-FITC/PI. The format is cell-based, human. The following applies: 9 μM, 24 h. As to the method:
HCT116 cells (3.0 × 10^5 cells/mL) were grown in culture medium on 6-well plates and incubated in the presence or absence of CYB-L10 (1, 3, and 9 µM) for 24 h. And then, the cells were harvested and washed with cold PBS buffer, resuspended in 1 × binding buffer, and then stained with 5 µL Annexin V-FITC and 5 µL propidium iodide (KeyGEN BioTECH, Nanjing, China) for 15 min in dark. The stained cells were analyzed by using flow cytometry (BD, FACSCalibur, Franklin Lakes, NJ, USA) within 1 h. The experiments were repeated independently for three times.
To estimate the effect of CYB-L10 on apoptosis, flow cytometry analysis using double staining with annexin V-FITC/PI was carried out for HCT116 cells. […] CYB-L10 induced the major population of HCT116 cells into the late apoptotic stage 47.39% at 9 μM concentration.
Background: Flow cytometry measures light scatter and fluorescence of single cells or particles in a stream.

Data set [1] in a line: Pharmacokinetic study in rat. The conditions noted are these: male, Sprague-Dawley, plasma, SD rats. In kind it is in vivo. As to the method:
Blood samples (200 µL) were collected into heparinized tubes via the jugular vein at the following times: 0.083, 0.25, 0.5, 1, 2, 5, 7, and 24 h after dosing. Plasma samples (100 µL) were obtained after centrifugation for 10 min at 3000 rpm and stored at −20 °C until used for analysis. The plasma was detected through LC-MS/MS.
The in vivo pharmacokinetic (PK) study of CYB-L10 was conducted in SD rats. The SD rats were divided into two groups (n = 2) and treated by i.v. injection at 1 mg/kg dose and i.g. at 5 mg/kg dose, respectively. The plasma samples were collected up to 24 h postdose and measured for the concentration of CYB-L10. By i.v. administration, the AUC0→∞ was 241 ± 40 h·ng/mL, and T1/2 was 18.4 ± 5.12 h.

The term GI50 denotes the concentration at which growth is held to half of that of the control. What is called AUC(0-inf) is total exposure, with the tail of the curve extrapolated. As usually defined, the half-life is the time needed for the level to fall by half in the phase considered. The low end stands for rapid decline, the high end for slow decline. As a reminder, the bioavailability is dose-corrected exposure relative to a reference, in per cent. In general, Cmax refers to the peak of the concentration-time curve. Broadly, the Tmax is the time from dosing to the highest level. As for `O=C1c2cccnc2C(=O)c2c1c(C(=O)OCCN1CCOCC1)c1ccccn21` [CYB-L10], the GI50 in the data set with HCT116 was found to be 27 ± 24 nM; in the data set on DU-145, 16 ± 10 nM; in the data set on HepG2/ADR (Homo sapiens, Resistant subline HepG2/ADR, MTT, 72 h) it was 740 ± 240 nM; in the data set on MCF-7 it was 91 nM; with MCF-7/ADR (Homo sapiens, NCI/ADR-RES, Resistant subline MCF-7/ADR, MTT, 72 h), 600 ± 210 nM; with HCT116-siTop1, 190 ± 92 nM. The Resistance ratio is listed as 11.4 with HepG2/ADR (GI50 HepG2/ADR / GI50 HepG2) and 6.6 in the data set with MCF-7/ADR (GI50 MCF-7/ADR / GI50 MCF-7). Also, the “substrate of the Pgp” value on P-glycoprotein (Pgp) is recorded as “not a substrate of the P-glycoprotein; also recorded: not to be a substrate of the Pgp”. Moreover, the “inhibition against TOP2” value in the data set with TOP2 was “very weak inhibition”. Besides, in the data set on TOP1, the TOP1 inhibition result is recorded as “higher TOP1 inhibition than CPT”. The “A2 quadrant cells (late apoptotic stage)” value in the data set on HCT116 cells is reported as 47.39%. Further, the AUC(0-inf) is 241 ± 40 ng·h/mL in [1] (iv, i.v. 1 mg/kg) and 76 ± 16.5 ng·h/mL in data set [1] (po, i.g. 5 mg/kg). The half-life in data set [1] (iv, i.v. 1 mg/kg) is 18.4 ± 5.12 h; in [1] (po, i.g. 5 mg/kg), 18.4 ± 7.77 h. Further, the bioavailability in data set [1] (oral, i.g. 5 mg/kg vs i.v. 1 mg/kg, read-out: F (bioavailability)) is 6.3%. The molecule also returned a Cmax in data set [1] (po, i.g. 5 mg/kg) of 24.7 ± 6.59 ng/mL. The Tmax in data set [1] (po, i.g. 5 mg/kg) stood at 0.46 ± 0.1 h.

The record behind these values is PMC6442119, “The antitumor activity of CYB-L10, a human topoisomerase IB catalytic inhibitor” (Journal of Enzyme Inhibition and Medicinal Chemistry, 2019).
